Values of other authors as cited in US12421507B2, “Methods and compositions for optochemical control of CRISPR-CAS9” (THE BROAD INSTITUTE, INC., priority 2018, dated 2025).

Assays:
dystrophin exon 51 = conditions: across 48 weeks
mammalian DHFR (DHFRts) = conditions: cells expressing DHFRts

CC[C@H](C(=O)N1CCCC[C@H]1C(=O)O[C@H](CCc1ccc(OC)c(OC)c1)c1cccc(OCCN2CCOCC2)c1)c1cc(OC)c(OC)c(OC)c1 [Shield-1]
binding to and stabilization of the DD (Mutants of human FKBP12): bind to and stabilize the DD in a dose-dependent manner

eteplirsen
average dystrophin positive fibers compared to baseline (dystrophin exon 51): 47%

CN(Cc1cnc2nc(N)nc(N)c2n1)c1ccc(C(=O)N[C@@H](CCC(=O)O)C(=O)O)cc1 [methotrexate]
degradation of DHFRts (mammalian DHFR (DHFRts)): inhibited degradation of the protein partially
